Key:
Test in all cases: relative viability (nuclei count vs DMSO), 5 days (fraction); higher = more cells survive
[1] = test system: NCI-H358
Method in brief: (§1)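 Lung cancer cell lines were pin-tool dosed in 1536-well plates on the day after seeding, with either a lone drug or a fixed anchor-drug dose plus five library-drug doses (not always all listed) in √10 steps. Nuclei were counted on 4× images after 5 days. Relative viability is the ratio of treated-well to vehicle-well nuclei counts, with each value a median of duplicate plates.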

[2] = test system: NCI-H838
Method in brief: as §1

[3] = test system: HCC-15
Method in brief: as §1

[4] = test system: NCI-H1993
Method in brief: as §1

[5] = test system: NCI-H2126
Method in brief: as §1

[6] = test system: LU99A
Method in brief: as §1

[7] = test system: ABC-1
Method in brief: as §1

[8] = test system: NCI-H2347
Method in brief: as §1

[9] = test system: UMC-11
Method in brief: as §1

[10] = test system: NCI-H2023
Method in brief: as §1

[11] = test system: HARA
Method in brief: as §1

[12] = test system: NCI-H1355
Method in brief: as §1

[13] = test system: NCI-H1651
Method in brief: as §1

[14] = test system: NCI-H650
Method in brief: as §1

[15] = test system: HOP-62
Method in brief: as §1

[16] = test system: COR-L23
Method in brief: as §1

[17] = test system: PC-14
Method in brief: as §1

[18] = test system: EPLC-272H
Method in brief: as §1

[19] = test system: NCI-H2085
Method in brief: as §1

[20] = test system: HCC-44
Method in brief: as §1

[21] = test system: LC-2-ad
Method in brief: as §1

[22] = test system: SW 1573
Method in brief: as §1

[23] = test system: NCI-H1915
Method in brief: as §1

## CCN(CC)CCCCNc1ncc2cc(-c3cc(OC)cc(OC)c3)c(NC(=O)NC(C)(C)C)nc2n1 + C[C@]1(O)C[C@@H](c2nc(-c3ccc4ccc(-c5ccccc5)nc4c3)c3c(N)nccn32)C1 [Linsitinib] (partner 1 µM)
[1]; first compound 0.01 µM
  relative viability: 0.731
[1]; first compound 0.03162 µM
  relative viability: 0.748
[1]; first compound 0.1 µM
  relative viability: 0.767
[1]; first compound 0.3162 µM
  relative viability: 0.859
[1]; first compound 1 µM
  relative viability: 0.695
[2]; first compound 0.01 µM
  relative viability: 1.13
[2]; first compound 0.03162 µM
  relative viability: 1
[2]; first compound 0.1 µM
  relative viability: 1.05
[2]; first compound 0.3162 µM
  relative viability: 1.01
[2]; first compound 1 µM
  relative viability: 0.603
[3]; first compound 0.01 µM
  relative viability: 1.04
[3]; first compound 0.03162 µM
  relative viability: 0.875
[3]; first compound 0.1 µM
  relative viability: 0.951
[3]; first compound 0.3162 µM
  relative viability: 0.925
[3]; first compound 1 µM
  relative viability: 0.872
[4]; first compound 0.01 µM
  relative viability: 0.763
[4]; first compound 0.03162 µM
  relative viability: 0.807
[4]; first compound 0.1 µM
  relative viability: 0.831
[4]; first compound 0.3162 µM
  relative viability: 0.751
[4]; first compound 1 µM
  relative viability: 0.731
[5]; first compound 0.01 µM
  relative viability: 0.725
[5]; first compound 0.03162 µM
  relative viability: 0.712
[5]; first compound 0.1 µM
  relative viability: 0.794
[5]; first compound 0.3162 µM
  relative viability: 0.674
[5]; first compound 1 µM
  relative viability: 0.708
[6]; first compound 0.01 µM
  relative viability: 0.557
[6]; first compound 0.03162 µM
  relative viability: 0.565
[6]; first compound 0.1 µM
  relative viability: 0.565
[6]; first compound 0.3162 µM
  relative viability: 0.583
[6]; first compound 1 µM
  relative viability: 0.517
[7]; first compound 0.01 µM
  relative viability: 0.915
[7]; first compound 0.03162 µM
  relative viability: 0.809
[7]; first compound 0.1 µM
  relative viability: 0.88
[7]; first compound 0.3162 µM
  relative viability: 0.838
[7]; first compound 1 µM
  relative viability: 0.722
[8]; first compound 0.01 µM
  relative viability: 0.93
[8]; first compound 0.03162 µM
  relative viability: 0.999
[8]; first compound 0.1 µM
  relative viability: 0.916
[8]; first compound 0.3162 µM
  relative viability: 1.05
[8]; first compound 1 µM
  relative viability: 0.889
[9]; first compound 0.01 µM
  relative viability: 1.25
[9]; first compound 0.03162 µM
  relative viability: 1.02
[9]; first compound 0.1 µM
  relative viability: 1.29
[9]; first compound 0.3162 µM
  relative viability: 1.21
[9]; first compound 1 µM
  relative viability: 0.99
[10]; first compound 0.01 µM
  relative viability: 0.716
[10]; first compound 0.03162 µM
  relative viability: 0.691
[10]; first compound 0.1 µM
  relative viability: 0.636
[10]; first compound 0.3162 µM
  relative viability: 0.708
[10]; first compound 1 µM
  relative viability: 0.685
[11]; first compound 0.01 µM
  relative viability: 1.04
[11]; first compound 0.03162 µM
  relative viability: 1
[11]; first compound 0.1 µM
  relative viability: 0.989
[11]; first compound 0.3162 µM
  relative viability: 0.933
[11]; first compound 1 µM
  relative viability: 0.672
[12]; first compound 0.01 µM
  relative viability: 0.861
[12]; first compound 0.03162 µM
  relative viability: 0.887
[12]; first compound 0.1 µM
  relative viability: 0.873
[12]; first compound 0.3162 µM
  relative viability: 0.898
[12]; first compound 1 µM
  relative viability: 0.794
[13]; first compound 0.01 µM
  relative viability: 1.06
[13]; first compound 0.03162 µM
  relative viability: 0.931
[13]; first compound 0.1 µM
  relative viability: 1.28
[13]; first compound 0.3162 µM
  relative viability: 1.16
[13]; first compound 1 µM
  relative viability: 0.786
[14]; first compound 0.01 µM
  relative viability: 0.792
[14]; first compound 0.03162 µM
  relative viability: 0.929
[14]; first compound 0.1 µM
  relative viability: 0.97
[14]; first compound 0.3162 µM
  relative viability: 1.1
[14]; first compound 1 µM
  relative viability: 0.789
[15]; first compound 0.01 µM
  relative viability: 1.04
[15]; first compound 0.03162 µM
  relative viability: 1.02
[15]; first compound 0.1 µM
  relative viability: 0.935
[15]; first compound 0.3162 µM
  relative viability: 1.14
[15]; first compound 1 µM
  relative viability: 0.873
[16]; first compound 0.01 µM
  relative viability: 1
[16]; first compound 0.03162 µM
  relative viability: 1.2
[16]; first compound 0.1 µM
  relative viability: 1.15
[16]; first compound 0.3162 µM
  relative viability: 1.09
[16]; first compound 1 µM
  relative viability: 0.948
[17]; first compound 0.01 µM
  relative viability: 1.01
[17]; first compound 0.03162 µM
  relative viability: 1.03
[17]; first compound 0.1 µM
  relative viability: 1.02
[17]; first compound 0.3162 µM
  relative viability: 1.09
[17]; first compound 1 µM
  relative viability: 0.885
[18]; first compound 0.01 µM
  relative viability: 1.26
[18]; first compound 0.1 µM
  relative viability: 1.1
[18]; first compound 0.3162 µM
  relative viability: 1.32
[18]; first compound 1 µM
  relative viability: 1.17
[19]; first compound 0.01 µM
  relative viability: 0.977
[19]; first compound 0.03162 µM
  relative viability: 0.949
[19]; first compound 0.1 µM
  relative viability: 1.07
[19]; first compound 0.3162 µM
  relative viability: 0.918
[19]; first compound 1 µM
  relative viability: 0.887
[20]; first compound 0.01 µM
  relative viability: 0.752
[20]; first compound 0.03162 µM
  relative viability: 0.709
[20]; first compound 0.1 µM
  relative viability: 0.749
[20]; first compound 0.3162 µM
  relative viability: 0.684
[20]; first compound 1 µM
  relative viability: 0.614
[21]; first compound 0.01 µM
  relative viability: 0.803
[21]; first compound 0.03162 µM
  relative viability: 0.913
[21]; first compound 0.1 µM
  relative viability: 0.958
[21]; first compound 0.3162 µM
  relative viability: 0.876
[21]; first compound 1 µM
  relative viability: 0.757
[22]; first compound 0.01 µM
  relative viability: 0.811
[22]; first compound 0.03162 µM
  relative viability: 0.785
[22]; first compound 0.1 µM
  relative viability: 0.892
[22]; first compound 0.3162 µM
  relative viability: 0.734
[22]; first compound 1 µM
  relative viability: 0.789
[23]; first compound 0.01 µM
  relative viability: 1.11
[23]; first compound 0.03162 µM
  relative viability: 1.12
[23]; first compound 0.1 µM
  relative viability: 1.12
[23]; first compound 0.3162 µM
  relative viability: 1.1
[23]; first compound 1 µM
  relative viability: 1.15

## COc1nc(C)cnc1NS(=O)(=O)c1cccnc1-c1ccc(-c2nnco2)cc1 [Zibotentan] + NC(=O)Nc1cc(-c2cccc(F)c2)sc1C(=O)N[C@H]1CCCNC1 [AZD7762] (partner 0.2 µM)
[1]; first compound 0.08 µM
  relative viability: 0.48
[1]; first compound 0.253 µM
  relative viability: 0.405
[1]; first compound 0.8 µM
  relative viability: 0.383
[1]; first compound 2.53 µM
  relative viability: 0.667
[2]; first compound 0.08 µM
  relative viability: 0.91
[2]; first compound 0.253 µM
  relative viability: 0.909
[2]; first compound 0.8 µM
  relative viability: 0.912
[2]; first compound 2.53 µM
  relative viability: 0.956
[3]; first compound 0.08 µM
  relative viability: 1.3
[3]; first compound 0.253 µM
  relative viability: 1.28
[3]; first compound 0.8 µM
  relative viability: 1.18
[3]; first compound 2.53 µM
  relative viability: 1.26
[4]; first compound 0.08 µM
  relative viability: 0.667
[4]; first compound 0.253 µM
  relative viability: 0.778
[4]; first compound 0.8 µM
  relative viability: 0.728
[4]; first compound 2.53 µM
  relative viability: 0.881
[5]; first compound 0.08 µM
  relative viability: 0.986
[5]; first compound 0.253 µM
  relative viability: 0.987
[5]; first compound 0.8 µM
  relative viability: 0.915
[5]; first compound 2.53 µM
  relative viability: 1.04
[6]; first compound 0.08 µM
  relative viability: 0.425
[6]; first compound 0.253 µM
  relative viability: 0.412
[6]; first compound 0.8 µM
  relative viability: 0.228
[6]; first compound 2.53 µM
  relative viability: 0.429
[7]; first compound 0.08 µM
  relative viability: 0.711
[7]; first compound 0.253 µM
  relative viability: 0.86
[7]; first compound 0.8 µM
  relative viability: 0.765
[7]; first compound 2.53 µM
  relative viability: 0.843
[8]; first compound 0.08 µM
  relative viability: 0.733
[8]; first compound 0.253 µM
  relative viability: 0.723
[8]; first compound 0.8 µM
  relative viability: 0.742
[8]; first compound 2.53 µM
  relative viability: 0.945
[11]; first compound 0.08 µM
  relative viability: 0.254
[11]; first compound 0.8 µM
  relative viability: 0.302
[11]; first compound 2.53 µM
  relative viability: 0.416
[12]; first compound 0.08 µM
  relative viability: 0.81
[12]; first compound 0.253 µM
  relative viability: 0.858
[12]; first compound 0.8 µM
  relative viability: 0.432
[12]; first compound 2.53 µM
  relative viability: 0.774
[13]; first compound 0.08 µM
  relative viability: 0.448
[13]; first compound 0.253 µM
  relative viability: 0.389
[13]; first compound 0.8 µM
  relative viability: 0.446
[13]; first compound 2.53 µM
  relative viability: 0.419
[14]; first compound 0.08 µM
  relative viability: 1.09
[14]; first compound 0.253 µM
  relative viability: 0.892
[14]; first compound 0.8 µM
  relative viability: 0.943
[14]; first compound 2.53 µM
  relative viability: 1.11
[15]; first compound 0.08 µM
  relative viability: 0.593
[15]; first compound 0.253 µM
  relative viability: 0.63
[15]; first compound 0.8 µM
  relative viability: 0.479
[15]; first compound 2.53 µM
  relative viability: 0.615
[17]; first compound 0.08 µM
  relative viability: 0.445
[17]; first compound 0.253 µM
  relative viability: 0.264
[17]; first compound 0.8 µM
  relative viability: 0.324
[17]; first compound 2.53 µM
  relative viability: 0.369
[18]; first compound 0.08 µM
  relative viability: 0.217
[18]; first compound 0.253 µM
  relative viability: 0.261
[18]; first compound 0.8 µM
  relative viability: 0.168
[18]; first compound 2.53 µM
  relative viability: 0.259
[19]; first compound 0.08 µM
  relative viability: 1.06
[19]; first compound 0.253 µM
  relative viability: 0.953
[19]; first compound 0.8 µM
  relative viability: 0.826
[19]; first compound 2.53 µM
  relative viability: 0.959
[20]; first compound 0.08 µM
  relative viability: 1.01
[20]; first compound 0.253 µM
  relative viability: 0.962
[20]; first compound 0.8 µM
  relative viability: 0.968
[20]; first compound 2.53 µM
  relative viability: 1.03
[21]; first compound 0.08 µM
  relative viability: 0.785
[21]; first compound 0.253 µM
  relative viability: 0.781
[21]; first compound 0.8 µM
  relative viability: 0.791
[21]; first compound 2.53 µM
  relative viability: 0.905
[23]; first compound 0.08 µM
  relative viability: 0.836
[23]; first compound 0.253 µM
  relative viability: 0.649
[23]; first compound 0.8 µM
  relative viability: 0.597
[23]; first compound 2.53 µM
  relative viability: 0.683

Source: the supplement of paper PMC10307832
